# Measurements: ChEMBL document CHEMBL5316357, “Discovery of Linvencorvir (RG7907), a Hepatitis B Virus Core Protein Allosteric Modulator, for the Treatment of Chronic HBV Infection” (J Med Chem, 2023)
# Columns and labels:
# [1] = AUC (0-infinity) in mouse plasma at 1 mg/kg,iv; type: ADME, organism-based; design: dose 1 mg/kg, route iv; details: in vivo
# [2] = Volume of distribution at steady state in Wistar Han rat at 2 mg/kg,iv by LC-MS/MS analysis; type: ADME, organism-based; details: in vivo, read-out: Vdss
# [3] = AUClast in male Wistar Han rat at 30 mg/kg,po by LC-MS/MS analysis; type: ADME, organism-based; design: dose 30 mg/kg, route po; details: in vivo
# [4] = AUClast in female cynomolgus monkey at 3 mg/kg,po by LC-MS/MS analysis; type: ADME, organism-based, Macaca fascicularis; design: dose 3 mg/kg, route po; details: in vivo
# [5] = Half life in male cynomolgus monkey at 3 mg/kg,po by LC-MS/MS analysis; type: ADME, organism-based, Macaca fascicularis; details: in vivo
# [6] = Half life in male Wistar Han rat at 30 mg/kg,po by LC-MS/MS analysis; type: ADME, organism-based; details: in vivo
# [7] = Oral bioavailability in female Wistar Han rat at 30 mg/kg by LC-MS/MS analysis; type: ADME, organism-based; details: in vivo
# [8] = Tmax in female cynomolgus monkey at 30 mg/kg,po by LC-MS/MS analysis; type: ADME, organism-based, Macaca fascicularis; details: in vivo
# [9] = AUClast in female minipig at 10 mg/kg,po by LC-MS/MS analysis; type: ADME, organism-based, Sus scrofa domesticus; design: dose 10 mg/kg, route po; details: pig, in vivo
# [10] = Oral bioavailability in male cynomolgus monkey at 10 mg/kg by LC-MS/MS analysis; type: ADME, organism-based, Macaca fascicularis; details: in vivo
# [11] = Clearance in minipig at 2 mg/kg,iv by LC-MS/MS analysis; type: ADME, organism-based, Sus scrofa domesticus; details: pig, in vivo
# [12] = Cmax in male cynomolgus monkey at 3 mg/kg,po by LC-MS/MS analysis; type: ADME, organism-based, Macaca fascicularis; design: dose 3 mg/kg, route po; details: in vivo
# [13] = Oral bioavailability in female minipig at 3 mg/kg by LC-MS/MS analysis; type: ADME, organism-based, Sus scrofa domesticus; details: pig, in vivo
# [14] = Cmax in male cynomolgus monkey at 10 mg/kg,po by LC-MS/MS analysis; type: ADME, organism-based, Macaca fascicularis; design: dose 10 mg/kg, route po; details: in vivo
# [15] = Clearance in Wistar Han rat at 2 mg/kg,iv by LC-MS/MS analysis; type: ADME, organism-based; details: in vivo
# [16] = Toxicity in minipig assessed as NOAEL administrated upto 28 days; design: species or system Sus scrofa domesticus; details: pig, in vivo; time < 28 day
# [17] = Half life in Wistar Han rat at 2 mg/kg,iv by LC-MS/MS analysis; type: ADME, organism-based; details: in vivo
# [18] = Oral bioavailability in female minipig at 30 mg/kg by LC-MS/MS analysis; type: ADME, organism-based, Sus scrofa domesticus; details: pig, in vivo
# [19] = AUClast in female Wistar Han rat at 30 mg/kg,po by LC-MS/MS analysis; type: ADME, organism-based; design: dose 30 mg/kg, route po; details: in vivo
# [20] = Half life in female minipig at 10 mg/kg,po by LC-MS/MS analysis; type: ADME, organism-based, Sus scrofa domesticus; details: pig, in vivo
# [21] = Oral bioavailability in male minipig at 30 mg/kg by LC-MS/MS analysis; type: ADME, organism-based, Sus scrofa domesticus; details: pig, in vivo
# [22] = Half life in female cynomolgus monkey at 30 mg/kg,po by LC-MS/MS analysis; type: ADME, organism-based, Macaca fascicularis; details: in vivo
# [23] = Clearance in mouse plasma at 1 mg/kg,iv; type: ADME, organism-based
# [24] = Half life in male minipig at 30 mg/kg,po by LC-MS/MS analysis; type: ADME, organism-based, Sus scrofa domesticus; details: pig, in vivo
# [25] = Oral bioavailability in rat plasma at 3 mg/kg; type: ADME, organism-based; details: plasma
# [26] = Ratio of AUC (0 to infinity) in liver to plasma of mouse at 3 mg/kg,po; type: ADME, organism-based; details: read-out: Ratio AUC
# [27] = Tmax in female minipig at 3 mg/kg,po by LC-MS/MS analysis; type: ADME, organism-based, Sus scrofa domesticus; details: pig, in vivo
# [28] = Cmax in male Wistar Han rat at 30 mg/kg,po by LC-MS/MS analysis; type: ADME, organism-based; design: dose 30 mg/kg, route po; details: in vivo
# [29] = AUClast in female minipig at 30 mg/kg,po by LC-MS/MS analysis; type: ADME, organism-based, Sus scrofa domesticus; design: dose 30 mg/kg, route po; details: pig, in vivo
# [30] = Tmax in male cynomolgus monkey at 30 mg/kg,po by LC-MS/MS analysis; type: ADME, organism-based, Macaca fascicularis; details: in vivo
# [31] = Oral bioavailability in female cynomolgus monkey at 30 mg/kg by LC-MS/MS analysis; type: ADME, organism-based, Macaca fascicularis; details: in vivo
# [32] = AUClast in female Wistar Han rat at 3 mg/kg,po by LC-MS/MS analysis; type: ADME, organism-based; design: dose 3 mg/kg, route po; details: in vivo
# [33] = Volume of distribution at steady state in minipig at 2 mg/kg,iv by LC-MS/MS analysis; type: ADME, organism-based, Sus scrofa domesticus; details: pig, in vivo, read-out: Vdss
# [34] = Cmax in male minipig at 10 mg/kg,po by LC-MS/MS analysis; type: ADME, organism-based, Sus scrofa domesticus; design: dose 10 mg/kg, route po; details: pig, in vivo
# [35] = Half life in female minipig at 30 mg/kg,po by LC-MS/MS analysis; type: ADME, organism-based, Sus scrofa domesticus; details: pig, in vivo
# [36] = Clearance in rat hepatocyte at 2 uM measured upto 120 mins by LC-MS/MS analysis; type: ADME, cell-based; details: hepatocytes
# [37] = AUClast in Wistar Han rat at 2 mg/kg,iv by LC-MS/MS analysis; type: ADME, organism-based; design: dose 2 mg/kg, route iv; details: in vivo
# [38] = Cmax in female minipig at 10 mg/kg,po by LC-MS/MS analysis; type: ADME, organism-based, Sus scrofa domesticus; design: dose 10 mg/kg, route po; details: pig, in vivo
# [39] = Half life in female Wistar Han rat at 10 mg/kg,po by LC-MS/MS analysis; type: ADME, organism-based; details: in vivo
# [40] = Half life in female Wistar Han rat at 30 mg/kg,po by LC-MS/MS analysis; type: ADME, organism-based; details: in vivo
# [41] = Cmax in female cynomolgus monkey at 10 mg/kg,po by LC-MS/MS analysis; type: ADME, organism-based, Macaca fascicularis; design: dose 10 mg/kg, route po; details: in vivo
# [42] = Half life in male minipig at 10 mg/kg,po by LC-MS/MS analysis; type: ADME, organism-based, Sus scrofa domesticus; details: pig, in vivo
# [43] = Tmax in male Wistar Han rat at 3 mg/kg,po by LC-MS/MS analysis; type: ADME, organism-based; details: in vivo
# [44] = Tmax in male cynomolgus monkey at 10 mg/kg,po by LC-MS/MS analysis; type: ADME, organism-based, Macaca fascicularis; details: in vivo
# [45] = Clearance in cynomolgus monkey at 2 mg/kg,iv by LC-MS/MS analysis; type: ADME, organism-based, Macaca fascicularis; details: in vivo
# [46] = AUC (0-infinity) in mouse liver at 3 mg/kg,po; type: ADME, organism-based; design: dose 3 mg/kg, route po
# [47] = Half life in male Wistar Han rat at 10 mg/kg,po by LC-MS/MS analysis; type: ADME, organism-based; details: in vivo
# [48] = Oral bioavailability in female Wistar Han rat at 3 mg/kg by LC-MS/MS analysis; type: ADME, organism-based; details: in vivo
# [49] = Oral bioavailability in male minipig at 3 mg/kg by LC-MS/MS analysis; type: ADME, organism-based, Sus scrofa domesticus; details: pig, in vivo
# [50] = Oral bioavailability in male Wistar Han rat at 3 mg/kg by LC-MS/MS analysis; type: ADME, organism-based; details: in vivo
# [51] = AUClast in female minipig at 3 mg/kg,po by LC-MS/MS analysis; type: ADME, organism-based, Sus scrofa domesticus; design: dose 3 mg/kg, route po; details: pig, in vivo
# [52] = Tmax in male Wistar Han rat at 30 mg/kg,po by LC-MS/MS analysis; type: ADME, organism-based; details: in vivo
# [53] = Half life in male cynomolgus monkey at 10 mg/kg,po by LC-MS/MS analysis; type: ADME, organism-based, Macaca fascicularis; details: in vivo
# [54] = Cmax in male Wistar Han rat at 3 mg/kg,po by LC-MS/MS analysis; type: ADME, organism-based; design: dose 3 mg/kg, route po; details: in vivo
# [55] = AUClast in male cynomolgus monkey at 10 mg/kg,po by LC-MS/MS analysis; type: ADME, organism-based, Macaca fascicularis; design: dose 10 mg/kg, route po; details: in vivo
# [56] = Cmax in female Wistar Han rat at 3 mg/kg,po by LC-MS/MS analysis; type: ADME, organism-based; design: dose 3 mg/kg, route po; details: in vivo
# [57] = AUClast in female Wistar Han rat at 10 mg/kg,po by LC-MS/MS analysis; type: ADME, organism-based; design: dose 10 mg/kg, route po; details: in vivo
# [58] = AUC (0-infinity) in mouse plasma at 3 mg/kg,po; type: ADME, organism-based; design: dose 3 mg/kg, route po; details: in vivo
structure (smiles),measurement,setting,value
CCOC(=O)C1=C(CN2CCN3C(=O)N(CC(C)(C)C(=O)O)C[C@@H]3C2)NC(c2nccs2)=N[C@H]1c1cccc(F)c1C [LINVENCORVIR],AUC,[1],837 ng·h/mL
same,Vd,[2],1.34 L/kg
same,AUC(0-t),[3],8500 ng·h/mL
same,AUC(0-t),[4],253 ng·h/mL
same,half-life,[5],6.25 h
same,half-life,[6],2.79 h
same,bioavailability,[7],105%
same,Tmax,[8],2 h
same,AUC(0-t),[9],768 ng·h/mL
same,bioavailability,[10],15.8%
same,clearance,[11],24.1 mL/min/kg
same,Cmax,[12],64 ng/mL
same,bioavailability,[13],10.6%
same,Cmax,[14],298 ng/mL
same,clearance,[15],30.5 mL/min/kg
same,NOAEL at 672 h,[16],350 mg/kg
same,half-life,[17],1.46 h
same,bioavailability,[18],12.4%
same,AUC(0-t),[19],17800 ng·h/mL
same,half-life,[20],9.7 h
same,bioavailability,[21],20.6%
same,half-life,[22],5.98 h
same,clearance,[23],20 mL/min/kg
same,half-life,[24],7.64 h
same,bioavailability,[25],14%
same,Kp,[26],32
same,Tmax,[27],1 h
same,Cmax,[28],1350 ng/mL
same,AUC(0-t),[29],2550 ng·h/mL
same,Tmax,[30],2 h
same,bioavailability,[31],18.6%
same,AUC(0-t),[32],220 ng·h/mL
same,Vd,[33],1.12 L/kg
same,Cmax,[34],248 ng/mL
same,half-life,[35],8.26 h
same,CLhep predicted at 2 µM,[36],11 mL/min/kg
same,AUC(0-t),[37],1120 ng·h/mL
same,Cmax,[38],132 ng/mL
same,half-life,[39],1.53 h
same,half-life,[40],1.8 h
same,Cmax,[41],336 ng/mL
same,half-life,[42],7.28 h
same,Tmax,[43],0.5 h
same,Tmax,[44],2 h
same,clearance,[45],23.6 mL/min/kg
same,AUC(0-inf),[46],8850 ng·h/mL
same,half-life,[47],1.43 h
same,bioavailability,[48],14.3%
same,bioavailability,[49],12.6%
same,bioavailability,[50],13.5%
same,AUC(0-t),[51],201 ng·h/mL
same,Tmax,[52],1 h
same,half-life,[53],6.64 h
same,Cmax,[54],70.2 ng/mL
same,AUC(0-t),[55],1430 ng·h/mL
same,Cmax,[56],80.4 ng/mL
same,AUC(0-t),[57],1970 ng·h/mL
same,AUC,[58],275 ng·h/mL
